Experimental data published in patent US9045423B2, “Prophylactic and/or therapeutic agent for anemia comprising tetrahydroquinoline compound as active ingredient” (KOWA COMPANY, LTD., priority 2009, dated 2015).

Key:
[1] = tested on: HepG2 cells derived from human liver cancer; test: EPO production in HepG2 cells (EPO ELISA of culture supernatant); type: cell-based; conditions: for activity at 3 µM: HepG2, 3 μM test compound, 48 hrs, 4% oxygen, non-stimulated state without compound = 100%, read-out: amount of EPO production, % of control (3 μM)
Method: HepG2 cells derived from human liver cancer were inoculated in an amount of 5×10^4 cells per well on a 48-well plate, using minimum essential medium (MEM, Sigma-Aldrich Company) containing 10% bovine fetal serum. On the next day, the medium was exchanged with Dulbecco's modified eagle medium (DMEM (Sigma-Aldrich Company)) containing 10% bovine fetal serum without Phenol Red. Then, a test compound dissolved in DMSO was added thereto to obtain a final concentration of 3 μM or 10 μM, and the amount of medium was adjusted to 400 μL per well. The cells were incubated for 48 hrs in a CO2 incubator in which the oxygen concentration was adjusted to 4%, and then the culture supernatant was collected. The EPO concentration in the culture supernatant was immediately measured using an EPO ELISA kit (Roche Diagnostics GmbH). The method was carried out according to the operation manual.
The amount of EPO production in a non-stimulated state where no compounds were added, was designated as 100%, and the amount of EPO production (% of control) induced by each of the compounds was determined.

[2] = tested on: K562 cells, a human proerythroblast cell line; test: Hemoglobin production in K562 cells (fluorescence of the porphyrin ring); type: cell-based; conditions: for activity at 6 µM: Homo sapiens, K562, 144 h, 6 μM test compound, 3 + 3 days incubation, non-stimulated state without compound = 100, read-out: amount of hemoglobin, % of control (6 μM); for enhancement of hemoglobin production: drug concentration 20 μM
Method: K562 cells (obtained from ATCC), which is a human proerythroblast cell line, were inoculated at a concentration of 1×10^5 cells/1 mL in each well of a 24-well plate, using complete medium (RPMI-1640 medium containing 10% bovine fetal serum), and 1 μL of a test compound at a 1000-fold concentration was added to each well. Subsequently, the cells were incubated for 3 days in a CO2 incubator (37° C., 5% CO2). The medium was exchanged, and the cells were further incubated for 3 days. The cells were collected and counted. Subsequently, the amount of hemoglobin produced in the cells was determined by adjusting the number of cells to 3×10^5 cells, and measuring the fluorescence of the porphyrin ring. That is, the cells collected by centrifugation were suspended in 500 μL of 2 M oxalic acid, and were heated to boil for 30 minutes. The cells were cooled, and then the fluorescence intensity was measured by using a fluorescence microplate reader (Spectra MAX GeminiEM; Molecular Devices Corp.) ([…]). The amount of hemoglobin in a non-stimulated state where no compound was added was designated as 100-, and the amount of hemoglobin (% of control) produced as induced by each of the compounds was determined.

Q: `CC(=O)N1c2ccc(-c3cnc(C)[nH]3)cc2C(Nc2ccc(Cl)cc2)CC1C` (stereo not shown) [Compound 127, 4-{1-Acetyl-4-[(4-chlorophenyl)-amino]-2-methyl-1,2,3,4-tetra-hydroquinolin-6-yl}-2-methyl-1H-imidazole] was tested. Which activity at 10 µM ([1]; Homo sapiens, HepG2, 48 h, final concentration 10 μM, non-stimulated state = 100%, read-out: enhancement of EPO production) did it give?
A: Its activity at 10 µM is 130%.

Q: And the activity at 3 µM ([1]; Homo sapiens)?
A: The activity at 3 µM was 96%.

Q: What does the source list for `CCOC(=O)c1ccc2c(c1)C(Nc1ccc(C3CCCCC3)cc1)CC(C)N2C(C)=O` (stereo not shown) [Compound 144, Ethyl 1-Acetyl-4-[(4-cyclohexylphenyl)-amino]-2-methyl-1,2,3,4-tetrahydroquinoline-6-carboxylate]?
A: activity at 6 µM [2]: 338%; activity at 3 µM ([1]; Homo sapiens): 180%

Q: Which results are given for `CC(=O)N1c2ccc(N3CCOCC3)cc2C(Nc2ccc(N3CCOCC3)cc2)CC1C` (stereo not shown) [Compound 161, 1-Acetyl-2-methyl-6-morpholino-4-[(4-morpholinophenyl)-amino]-1,2,3,4-tetrahydroquinoline]?
A: activity at 6 µM [2]: 308%; activity at 3 µM ([1]; Homo sapiens): 351%

Q: For `CNC(=O)c1ccc2c(c1)C(Nc1ccc(N3CCOCC3)cc1)CC(C)N2C(C)=O` (stereo not shown) [Compound 132, 1-Acetyl-4-[(4-morpholinophenyl)-amino]-N,2-dimethyl-1,2,3,4-tetrahydroquinoline-6-carboxamide], which activity at 6 µM [2] is on record?
A: Its activity at 6 µM is 198%.

Q: What about the activity at 3 µM ([1]; Homo sapiens) of the same compound?
A: Its activity at 3 µM is 208%.

Q: Which activity at 6 µM [2] does the source give for `CONC(=O)c1ccc2c(c1)C(Nc1ccc(N3CCOCC3)cc1)CC(C)N2C(C)=O` (stereo not shown) [Compound 135, 1-Acetyl-4-[(4-morpholinophenyl)-amino]-N-methoxy-2-methyl-1,2,3,4-tetrahydroquinoline-6-carboxamide] here?
A: Its activity at 6 µM is 178%.

Q: And the activity at 3 µM ([1]; Homo sapiens)?
A: The activity at 3 µM was 124%.

Q: Which activity at 6 µM [2] does the source give for `CCOC(=O)c1ccc2c(c1)C(Nc1ccc(C3CCOCC3)cc1)CC(C)N2C(C)=O` (stereo not shown) [Compound 153, Ethyl 1-acetyl-2-methyl-4-{[4-(tetrahydro-2H-pyran-4-yl)-phenyl]amino}-1,2,3,4-tetrahydroquinoline-6-carboxylate] here?
A: Its activity at 6 µM is 294%.

Q: `CC(=O)N1c2ccc(C(=O)NC3CCCCC3)cc2C(Nc2ccc(N3CCOCC3)cc2)CC1C` (stereo not shown) [Compound 178, 1-Acetyl-N-cyclohexyl-2-methyl-4-[(4-morpholinophenyl)-amino]-1,2,3,4-tetrahydroquinoline-6-carboxamide] was tested. Which activity at 6 µM [2] did it give?
A: The activity at 6 µM was 388%.

Q: And the activity at 3 µM ([1]; Homo sapiens)?
A: The activity at 3 µM was 370%.

Q: What does the source list for `CC(=O)N1c2ccccc2C(Oc2ccc(NS(C)(=O)=O)cc2)CC1C` (stereo not shown) [Compound 143, N-{4-[(1-acetyl-2-methyl-1,2,3,4-tetrahydroquinolin-4-yl)oxy]-phenyl}methanesulfonamide]?
A: activity at 6 µM [2]: 396%; activity at 3 µM ([1]; Homo sapiens): 130%

Q: `CC(=O)N1c2ccc(C(N)=O)cc2C(Oc2ccc(Cl)cc2)CC1C` (stereo not shown) [Compound 142, 1-Acetyl-4-(4-chlorophenoxy)-2-methyl-1,2,3,4-tetrahydro-quinoline-6-carboxamide] was tested. Which activity at 6 µM [2] did it give?
A: Its activity at 6 µM is 478%.

Q: What about the activity at 3 µM ([1]; Homo sapiens) of the same compound?
A: The activity at 3 µM was 129%.

Q: With `CC(=O)N1c2ccc(N3CC(C)OC(C)C3)cc2C(Nc2ccc(NS(C)(=O)=O)cc2)CC1C` (stereo not shown) [Compound 110, 1-Acetyl-6-[(2,6-dimethyl)-morpholino]-4-[(4-methanesulfonylaminophenyl)-amino]-2-methyl-1,2,3,4-tetrahydroquinoline] as the compound, how does the activity at 3 µM ([1]; Homo sapiens) read?
A: Its activity at 3 µM is 207%.

Q: What does the source list for `CC(=O)N1c2ccc(C(N)=O)cc2C(Nc2ccc(-c3csc(C)n3)cc2)CC1C` (stereo not shown) [Compound 164, 1-Acetyl-2-methyl-4-{[4-(2-methylthiazol-4-yl)-phenyl]amino}-1,2,3,4-tetrahydroquinoline-6-carboxamide]?
A: activity at 6 µM [2]: 367%; activity at 3 µM ([1]; Homo sapiens): 336%

Q: For `COC(=O)CCCc1ccc(NC(=O)c2ccc3c(c2)C(Nc2ccc(Cl)cc2)CC(C)N3C(C)=O)cc1` (stereo not shown) [Compound 150, Methyl 4-{4-{1-Acetyl-4-[(4-chlorophenyl)-amino]-2-methyl-1,2,3,4-tetrahydroquinoline-6-carboxamido}-phenyl}butanoate], which activity at 6 µM [2] is on record?
A: Its activity at 6 µM is 534%.

Q: With `CC(=O)N1c2ccc(NS(C)(=O)=O)cc2C(Nc2ccc(N3CCOCC3)cc2)CC1C` (stereo not shown) [Compound 98, 1-Acetyl-6-methanesulfonylamino-2-methyl-4-[(4-morpholinophenyl)-amino]-1,2,3,4-tetrahydroquin-oline] as the compound, how does the “enhancement of hemoglobin production” value [2] read?
A: The value was 142%.

Q: For `CC(=O)N1c2ccc(C(=O)O)cc2C(Nc2ccc(Cl)cc2)CC1C` (stereo not shown) [Compound 42, 1-Acetyl-4-[(4-chlorophenyl)-amino]-2-methyl-1,2,3,4-tetrahydro-quinoline-6-carboxylic acid], which “enhancement of EPO production” value ([1]; final concentration 10 μM, non-stimulated state = 100%) is on record?
A: Its value is 138%.

Q: Which “enhancement of hemoglobin production” value [2] does the source give for `CC(=O)N1c2ccc(N3CCN(C(=O)C(C)C)CC3)cc2C(Nc2ccc(NS(C)(=O)=O)cc2)CC1C` (stereo not shown) [Compound 111, 1-Acetyl-6-[(4-isopropylcarbonyl)-piperazino]-4-[(4-methanesulfonyl-aminophenyl)amino]-2-methyl-1,2,3,4-tetrahydroquinoline] here?
A: The value was 171%.

Q: Which “enhancement of hemoglobin production” value [2] does the source give for `CCOC(=O)Cc1ccc(NC2CC(C)N(C(C)=O)c3ccc(NS(C)(=O)=O)cc32)cc1` (stereo not shown) [Compound 99, 1-Acetyl-6-methanesulfonylamino-2-methyl-4-[(4-ethoxycarbonyl-methylphenyl)amino]-1,2,3,4-tetra-hydroquinoline] here?
A: The value was 306%.

Q: For `CC(=O)N1c2ccc(C(=O)NCCOCCOCCOCCC(=O)OC(C)(C)C)cc2C(Nc2ccc(Cl)cc2)CC1C` (stereo not shown) [Compound 148, Tert-butyl 12-{1-Acetyl-4-[(4-chlorophenyl)-amino]-2-methyl-1,2,3,4-tetrahydroquinoline-6-carboxamido}-4,7,10-trioxadodecanoate], which activity at 6 µM [2] is on record?
A: Its activity at 6 µM is 506%.

Q: For `CC(=O)N1c2ccc(C(N)=O)cc2[C@H](Nc2ccc(NS(C)(=O)=O)cc2)C[C@@H]1C` (relative stereo) [Compound 102, 1-Acetyl-4-[(4-methanesulfonyl-aminophenyl)amino]-2-methyl-1,2,3,4-tetrahydroquinoline-6-carbox-amide], which “enhancement of hemoglobin production” value [2] is on record?
A: The value was 115%.

Q: How did the activity at 3 µM ([1]; Homo sapiens) turn out when `CC(=O)N1c2ccc(N3CCN(C(C)C)CC3)cc2C(Nc2ccc(N3CCOCC3)cc2)CC1C` (stereo not shown) [Compound 159, 1-Acetyl-6-(4-isopropylpiperazin-1-yl)-2-methyl-4-[(4-morpholinophenyl)-amino]-1,2,3,4-tetrahydroquinoline] was run?
A: The activity at 3 µM was 292%.

Q: How did the activity at 6 µM [2] turn out when `CC(=O)N1c2ccc(C(N)=O)cc2C(Nc2ccc(C3CCOCC3)cc2)CC1C` (stereo not shown) [Compound 156, 1-Acetyl-2-methyl-4-{[4-(tetrahydro-2H-pyran-4-yl)phenyl]amino}-1,2,3,4-tetrahydroquinoline-6-carboxamide] was run?
A: Its activity at 6 µM is 371%.

Q: `CNC(=O)c1ccc2c(c1)C(Nc1cccc(N3CCOCC3)c1)CC(C)N2C(C)=O` (stereo not shown) [Compound 180, 1-Acetyl-N,2-dimethyl-4-[(3-morpholinophenyl)amino]-1,2,3,4-tetrahydroquinoline-6-carboxamide] was tested. Which activity at 6 µM [2] did it give?
A: The activity at 6 µM was 150%.

Q: How did the activity at 6 µM [2] turn out when `CNC(=O)c1ccc2c(c1)C(Nc1ccc(C3CCOCC3)cc1)CC(C)N2C(C)=O` (stereo not shown) [Compound 155, 1-Acetyl-N,2-dimethyl-4-{[4-(tetrahydro-2H-pyran-4-yl)phenyl]amino}-1,2,3,4-tetrahydroquino-line-6-carboxamide] was run?
A: The activity at 6 µM was 387%.

Q: How did the activity at 3 µM ([1]; Homo sapiens) turn out when `CNC(=O)c1ccc2c(c1)C(Nc1ccc(-c3ncco3)cc1)CC(C)N2C(C)=O` (stereo not shown) [Compound 170, 1-Acetyl-N,2-dimethyl-4-{[4-(oxazol-2-yl)phenyl]-amino}-1,2,3,4-tetrahydroquinoline-6-carboxamide] was run?
A: The activity at 3 µM was 128%.

Q: `CC(=O)N1c2ccc(C(=O)O)cc2C(Oc2ccc(N3CCOCC3)cc2)CC1C` (stereo not shown) [Compound 139, 1-Acetyl-2-methyl-4-(4-morpho-linophenoxy)-1,2,3,4-tetrahydro-quinoline-6-carboxylic acid] was tested. Which activity at 6 µM [2] did it give?
A: Its activity at 6 µM is 193%.

Q: With `CC(=O)N1c2ccccc2[C@H](OCc2ccccc2)C[C@@H]1C` (relative stereo) [Compound 36, 1-Acetyl-2-methyl-4-benzyloxy-1,2,3,4-tetrahydroquinoline] as the compound, how does the “enhancement of hemoglobin production” value [2] read?
A: Its value is 143%.

Q: For `CC(=O)N1c2c(Br)cccc2C(Nc2ccccc2)CC1C` (stereo not shown) [Compound 63, 1-Acetyl-8-bromo-4-phenylamino-2-methyl-1,2,3,4-tetrahydroquino-line], which “enhancement of hemoglobin production” value [2] is on record?
A: The value was 260%.

Q: With `CC(=O)N1c2ccc(C(=O)O)cc2C(Oc2ccc(Cl)cc2)CC1C` (stereo not shown) [Compound 141, 1-Acetyl-4-(4-chlorophenoxy)-2-methyl-1,2,3,4-tetrahydro-quinoline-6-carboxylic acid] as the compound, how does the activity at 6 µM [2] read?
A: Its activity at 6 µM is 209%.

Q: How did the “enhancement of hemoglobin production” value [2] turn out when `CC(=O)N1c2c(F)cccc2[C@H](Nc2ccccc2F)C[C@@H]1C` (relative stereo) [Compound 4, 1-Acetyl-8-fluoro-4-[(2-fluoro-phenyl)amino]-2-methyl-1,2,3,4-tetrahydroquinoline] was run?
A: The value was 162%.
